Like-named read-outs stand apart in the source and are kept apart here.
Tests used:
tropoelastin gene = experiment: RAR transactivation of steady state tropoelastin gene in normal human lung fibroblasts (CCD-16Lu); assay type: cell-based
Experimental: Transactivation of the tropoelastin gene in normal human lung fibroblasts (CCD-16Lu) was performed as described below. Cells were grown to confluence at which time fresh media +/- ATRA or selective retiniod was added to the basal culture. ATRA and/or selective retiniods were used at a concentration of 1×10^-7 M. The cell layer was lysed using a guanidinium-based buffer (TRIZOL/Sigma) for RNA extraction and analysis. Amplification of tropoelastin and GAPDH RNA was performed by standard quantitative RT-PCR (TAQMAN, Perken/Elmer) using appropriate selective primers. Tropo-elastin gene expression was normalized to the expression of standard house-keeping gene (GAPDH).
Samples were run in triplicate.

[1] = test system: elastase-induced emphysema; experiment: Alveolar repair in rat model of elastase-induced emphysema, intraperitoneal; assay type: in vivo, male Sprague Dawley rats; parameters: Alveolar Area: unit not given here
Experimental: Animals were divided into treatment groups of approximately eight. […] Three weeks post injury ATRA or a RAR selective agonist was dissolved in DMSO (20 mg/ml) and stored at -20 C. Fresh working stocks were prepared fresh daily by dilution in corn oil to a final concentration of 2 mg/ml. […] Control groups were challenged with elastase and 21 days later treated with Vehicle (DMSO/PBS) for 14 days. Animals were sacrificed 24 hours after the last dose of by exsanguination under deep anesthesia. Blood was collected at time of exanguination for analysis of changes in blood chemistry from respective treatments. The lungs were inflated with 10% neutral buffered formalin by intratracheal instillation at a constant rate (1 ml/gram body mass/min). The lung was excised and immersed in fixative for 24 hours prior to processing. Standard methods were used to prepare 5 um paraffin sections. Sections were stained with Hematoxylin and Eosin (H%E). Computerized Morphometric analysis was performed to determine the average alveolar size and alveolar number.

experimental emphysema = experiment: Alveolar repair in rat experimental emphysema, oral dosing; assay type: in vivo, rats; conditions: 1 mg/kg/PO daily for two weeks
Experimental: Three (3) weeks post injury animals were treated with vehicle (Capmul solution) or retinoids prepared in Capmul and dosed orally at 1, 3, and 10 mg/kg body weight. Animals were treated for 14 days prior to termination of study.
Dosage was at 1 mg/kg/PO daily for two weeks.

[2] = Plasma triglyceride levels in rats; assay type: in vivo; conditions: plasma, 1 mg/kg/PO daily for two weeks
Experimental: Experimental emphysema was induced in rats as described in Example 2. Three (3) weeks post injury animals were treated with vehicle (Capmul solution) or retinoids prepared in Capmul and dosed orally at 1, 3, and 10 mg/kg body weight. Animals were treated for 14 days prior to termination of study. Lung harvest and blood collection was performed as described in Example 2.
Quantitation of triglycerides contained in rat plasma was performed after using established procedures in a contact clinical laboratory facility. Briefly, plasma triglycerides were converted to dihdroxyacetone and H2 O2, by sequential treatment of plasma with lipase and glycerokinase according directions described by manufacturer of triglycerides/GPO kit (Boehringer Mannheim #1488872). H2 02 was quantitated calorimetrically in a Hitachi 911 Chemistry Analyzer. In rats normal triglyceride levels are 75-175 mg/dl.
Dosage was at 1 mg/kg/PO daily for two weeks. […] Therefore, it appears that RARα selective activity is linked to elevated triglyceride levels.

alveolar septation = conditions: postnatal administration, newborn rats, cited from earlier work
emphysema = conditions: animal models of emphysema; cited from earlier work
RAR subtypes = conditions: cited from earlier work
RXR receptors = conditions: cited from earlier work

SMILES	Tropo-elastin Expression (tropoelastin gene; CCD-16Lu, 1×10^-7 M, RT-PCR, triplicate, untreated control 30.90)	tropoelastin gene induction (in words) (tropoelastin gene; human lung fibroblasts, compared to the control)	% Repair ([1]; 0.5 mg/kg ip once daily, from 21 days post injury, 14 days) [%]	Alveolar Area ([1]; 0.5 mg/kg ip once daily, from 21 days post injury, 14 days, naive 1637 +/- 153, elastase + vehicle 3570 +/- 319)	alveolar repair (in words) ([1]; elastase-treated rats, 0.5 mg/kg ip)	% Repair (experimental emphysema) [%]	triglyceride levels (in words) [2]	[Triglyceride] ([2]; normal rat 75-175 mg/dl) [mg/dL]	number of alveoli / septation in lungs (in words) (alveolar septation; listed as ATRA)	formation of new alveoli and elastic recoil (in words) (emphysema)	binding to the three RAR subtypes (in words) (RAR subtypes)	binding to RXR receptors (in words) (RXR receptors)	number of alveoli / septation in lungs (in words) (alveolar septation)
CC1=C(/C=C/C(C)=C/C=C/C(C)=C/C(=O)O)C(C)(C)CCC1 [RAR Agonist 4, All-trans retinoic acid]	35.50 (Elastin/GAPDH) × 10^5	slightly induces tropoelastin gene induction	50	2607 +/- 191	induces alveolar repair, reversing the alveolar destruction caused by treatment with elastase	37.6	either on the high end of normal or elevated	182	the capacity of dexamethasone to prevent the expression of CRBP and RARβ mRNA and subsequent alveolar septation in developing rat lung was abrogated by ATRA	can induce formation of new alveoli and return elastic recoil to near normal	binds with approximately equal affinity to all the three RAR subtypes	does not bind to the RXR receptors	
CC1=C(/C=C/C(C)=C\C=C\C(C)=C\C(=O)O)C(C)(C)CCC1 [9-cis retinoic acid]												is the natural ligand	
C[C@@H]1C[C@H]2[C@@H]3CCC4=CC(=O)C=C[C@]4(C)[C@@]3(F)[C@@H](O)C[C@]2(C)[C@@]1(O)C(=O)CO [dexamethasone]													inhibits the process of septation in the lungs
